Read-outs that look alike come from different tables or passages of the source.

Data set [1] concerns Boraras Micros fish. Conditions: for time to death of fish: 300 ppm EDTA disodium, 800 ppm EDTA Na; for toxicity / safety to host cells: in words, from fish experiments; for death of fish: 1000 ppm Na2 EDTA / 0.5 ppm CuCl2 / [0.3 ppm CuCl2+20 ppm ZnCl2].
Data set [2] in a line: Metallic Cu suspension test with 1% Na ascorbate (Cu ion complex formation). The data set is classed as physicochemical. The settings on record: with 0.1% CuCl2; excess 1% Na ascorbate. The source says: In an environment containing water in the body of organisms/host bodies (host is animal/human) such as in blood/tissue fluid/alveolar fluid/intracellular fluid . . . ) in conditions where the body is depleted of chelators with [Zn ions/other transition metal ions]-holding (such as the amount of chelators with [Zn ions/other transition metal ions]-holding remains is not significant in the patient's body), Cu ions will attach to [Fe ions in metalloproteins of [host cells/red blood cells/alveolar cells], causing these cells to lose the ability to exchange O2, causing symptoms of acute respiratory failure (not due to lung infection), and this symptom is very dangerous because it can quickly lead to death. Among the bond forces between Cu ions and other metal ions, the bond force of the Cu ion-Fe ion complex is the strongest, can recognize the existence of Cu ion-ion Fe ion complex/Cu ion-Zn ion complex/Cu ion-Mg ion complex/Cu ion-Ca ion complex, and can recognize Cu ion-other metal ion bonds, in which the Cu ion-Fe ion bond is the bond type with the highest magnitude through experiments conducted in water environment (water environment without chelators with [Zn ions/other transition metal ions]-holding) is the environment that simulates the blood environment/alveolar fluid environment of a host with the depletion of these chelators), these experiments were performed by adding an excess amount of 1% Na ascorbate solution to the test tube containing the solution with [0.1 % CuCl2+greater than 0.2% FeCl3]/the test tube containing the solution containing [0.1 % CuCl2+greater than 0.6% ZnCl2]/the test tube containing the solution containing [0.1 % CuCl2+greater than 0.63% MgCl2]/the test tube containing the solution conatining [0 .

Data set [3] is classed as physicochemical, animal/human blood. The settings on record: for volume that completely dissolves Zn-blood complex suspension: suspension from 1.4 ml 0.1% ZnCl2 in 100 ml 0.9% NaCl with 1% blood; for amount needed to completely dissolve Zn-blood complex suspension, compared with lysine phosphate/lysine chloride/arginine phosphate/arginine chloride: suspension with 2 ppm ZnCl2.

Data set [4] is described as follows: Metallic Cu suspension test with 1% Na ascorbate (Cu ion complex formation). The class given is physicochemical. The settings on record: 0.1% CuCl2, alone or with several percent of chelator; excess 1% Na ascorbate.
The test system of data set [5] is Boraras Micros fish. Put plainly: Protection of Boraras Micros fish from CuCl2 by chelators. The data set is classed as in vivo. The settings on record: 0.4 ppm CuCl2 + a few ppm to more than 10 ppm of chelator.
The test system of data set [6] is symptoms such as sore throat/cough/headache. Description: Symptoms generated by ZnCl2 in the throat and their relief. Conditions: for disappearance of ZnCl2-induced symptoms: few ml of 10% solution, oral. The class given is in vivo, human.
Data set [7] concerns sweet taste on the tongue. Description: Loss and recovery of sweet taste after Zn gluconate. The settings on record: for recovery of sweet taste: 5% arginine glutamate / 0.5% triethylenetetramine glutamate, 10 seconds. The data set is classed as in vivo, human.
Data set [8] concerns microorganisms that decompose organic matter (bacteria/fungi). Put plainly: Culture of microorganisms that decompose organic matter. The class given is cell-based. Conditions: for concentration in culture medium at which microorganisms multiply strongly: microorganisms that decompose organic matter (bacteria/fungi).
Data set [9] can be described thus: Voltage of metallic Zn-metallic Cu electrode pair in test tube. The data set is classed as physicochemical. The settings on record: 0.9% NaCl+0.2 ppm CuCl2+0.4 ppm ZnCl2+0.6 FeCl3.
Data set [10] relates to pathogenic microorganisms. Put plainly: Inhibition/killing of pathogenic microorganisms in water with Boraras Micros fish infected from dead fish. The class given is in vivo.
Data set [11] has as its system mice. The data set is classed as in vivo, mouse. Conditions: fed rat poison pills, normal water (control).
Where [12] appears, read: 10 ppm Ampicillin / 20 ppm Bactrim / 100 ppm triethylenetetramine diethylenetriaminepentaacetate / 300 Mg EDTA / 600 ppm Ca EDTA / combinations as in label.
The mark [13] stands for this setting: 20 ppm Ampicillin / 40 ppm Bactrim.

On to EDTA Na, for which the “time to death of fish” value in data set [1] is not above 24 h. For `[Cl-].[Cl-].[Mg+2]` [MgCl2], the “concentration of second metal salt at which metallic Cu suspension will not appear” value in [2] is “greater than 0.63%”. With arginine ascorbate, the “volume that completely dissolves Zn-blood complex suspension” value in [3] (concentration of solution not given) is 0.7 mL. For “tetraethylenepentamine diethylenetriaminepentaacetate”, the “amount needed to completely dissolve Zn-blood complex suspension, compared with lysine phosphate/lysine chloride/arginine phosphate/arginine chloride” value in data set [3] was “tens to hundreds of times lower”. As for `[Ca+2].[Cl-].[Cl-]` [CaCl2], in data set [2], the “concentration of second metal salt at which metallic Cu suspension will not appear” value was “greater than 0.65%”. Turning to `[Cl][Cu][Cl]` [CuCl2], in [1] (0.4 ppm CuCl2), the “death of fish in CuCl2” value was “dying after a few hours”. For the same molecule, in data set [4], the “appearance of metallic Cu suspension” value was “metallic Cu suspension will appear”. “Diethylenetriaminepentaacetic acid magnesium [Mg DTPA]”: the “survival of fish in CuCl2 with chelator” value in [5] is listed as “will not die after several weeks”. Moreover, the “appearance of metallic Cu suspension” value in [4] is “metallic Cu suspension will not appear”. With `CN(C)C1CSSC1` [Nereistoxin], in [1] (in vivo), the “time to death of fish, toxin alone” value came to 30 min. Regarding triethylenetetramine ascorbate, the “disappearance of ZnCl2-induced symptoms” value in data set [6] was “gradually disappear after a few hours”. `[Cl][Fe]([Cl])[Cl]` [FeCl3]: the “concentration of second metal salt at which metallic Cu suspension will not appear” value in data set [2] is listed as “greater than 0.2%”. Besides, in data set [3] (0.1% solution), the “volume that completely dissolves Zn-blood complex suspension” value turned out to be 6 mL. Consider triethylenetetramine glutamate, for which the “disappearance of ZnCl2-induced symptoms” value in data set [6] was “gradually disappear after a few hours”. The “recovery of sweet taste” value in data set [7] is on record as “fully recovered”. Further, in data set [4], the “appearance of metallic Cu suspension” value is listed as “metallic Cu suspension will not appear”. For the molecule “pentaethylenehexamine diethylenetriaminepentaacetate”, in [3], the “amount needed to completely dissolve Zn-blood complex suspension, compared with lysine phosphate/lysine chloride/arginine phosphate/arginine chloride” value is on record as “tens to hundreds of times lower”. As to “Diethylenetriaminepentaacetic acid calcium [Ca DTPA]”, the “toxicity / safety to host cells” value in data set [1] is recorded as “highly safe”. Further, the “survival of fish in CuCl2 with chelator” value in data set [5] is “will not die after several weeks”. In the case of `[Cl-].[Cl-].[Zn+2]` [ZnCl2], in [8], the “concentration in culture medium at which microorganisms multiply strongly” value (“concentration in culture medium” below) is 12 ppm. The “appearance of symptoms (itchy throat/sore throat/cough/runny nose/body aches/slight fever/headache)” value in data set [6] (2 ml of 0.4% ZnCl2 solution, 120 seconds) was “appear after a few minutes to a few hours”. For the same molecule, in data set [3] (0.01% blood), the “ZnCl2 concentration above which Zn-blood suspension begins to appear” value is given as “above 1.5 ppm” and the “ZnCl2 concentration at which suspension appears abundantly” value stood at 2 ppm. In data set [3] (100 ml of 0.9% NaCl with 1% blood), the “volume of 0.1% ZnCl2 solution at which Zn-blood complex suspension begins to appear” value was 1.4 mL. `O=C([O-])CN(CCN(CC(=O)[O-])CC(=O)O)CC(=O)O.[Na+].[Na+]` [EDTA disodium]: in data set [1], the “time to death of fish” value is “less than 24 hours”, the death of fish result is listed as “died within a few hours” and the “toxicity / safety to host cells” value is listed as “quite toxic to host cells”. The death of fish result in data set [1] (listed as 2 Na EDTA) is “died in a few hours”. The “toxicity / safety to host cells” value in data set [1] (listed as disodium EDTA) is listed as “highly toxic to healthy cells”. Turning to `O=C([O-])[C@H](O)[C@@H](O)[C@H](O)[C@H](O)CO.O=C([O-])[C@H](O)[C@@H](O)[C@H](O)[C@H](O)CO.[Zn+2]` [Zn gluconate], in data set [7] (chewing and sucking 15 mg tablet, 120 seconds), the “sweet taste sensation after Zn” value is on record as “completely lost”. With `NCCNCCNCCN` [triethylenetetramine, Triethylenetetramine, reference compound], the “appearance of metallic Cu suspension” value in data set [4] was “metallic Cu suspension will not appear”.

Regarding `N=C(N)NCCC[C@H](N)C(=O)O` [arginine, reference compound], in [4], the “appearance of metallic Cu suspension” value was “metallic Cu suspension will not appear”. With `N=C(N)NCCC[C@H](N)C(=O)O.O=P(O)(O)O` [arginine phosphate], in data set [9], the “amount used to sharply reduce the voltage, compared with EDTA Mg/triethylenetetramine glutamate/triethylenetetramine diethylenetriaminepentaacetate” value was “dozens of times greater”. Also, the “survival of fish in CuCl2 with chelator” value in [5] is “will not die after several weeks”. Also, the “volume that completely dissolves Zn-blood complex suspension” value in [3] (10% solution) worked out at 2 mL. Besides, the “units of [Zn ions/other transition metal ions] held by one unit of chelator” value in [3] (synthetic: upper end printed 'more than 200 units') is given as “one unit (or few units)”. As to `O=C([O-])CC(O)C(=O)[O-].[Na+].[Na+]` (stereo not shown) [malate Na, Na malate], the “concentration in culture medium” value in data set [8] came out at 80 ppm. With `O=C([O-])c1cc(O)c(O)c(O)c1.[Na+]` [Na gallate], the “concentration in culture medium” value in data set [8] stood at 5 ppm. triethylenetetramine gluconate: the “amount needed to completely dissolve Zn-blood complex suspension, compared with lysine phosphate/lysine chloride/arginine phosphate/arginine chloride” value in data set [3] is reported as “tens to hundreds of times lower”. On to `NCCCC[C@H](N)C(=O)O` [lysine, reference compound], for which the “appearance of metallic Cu suspension” value in data set [4] is listed as “metallic Cu suspension will not appear”. `NCCCC[C@H](N)C(=O)O.O=P(O)(O)O` [lysine phosphate, reference compound]: the “survival of fish in CuCl2 with chelator” value in data set [5] was “will not die after several weeks”. With `O=C([O-])CC(O)(CC(=O)[O-])C(=O)[O-].[Na+].[Na+].[Na+]` [citrate Na, Na citrate], the “concentration in culture medium” value in [8] amounted to 80 ppm. Regarding arginine glutamate, in data set [9], the “amount used to sharply reduce the voltage, compared with EDTA Mg/triethylenetetramine glutamate/triethylenetetramine diethylenetriaminepentaacetate” value is reported as “dozens of times greater”. Moreover, the “recovery of sweet taste” value in data set [7] is recorded as “fully recovered”. The “volume that completely dissolves Zn-blood complex suspension” value in data set [3] (10% solution) stood at 1.0 mL. `CC1(C)S[C@@H]2[C@H](NC(=O)[C@H](N)c3ccccc3)C(=O)N2[C@H]1C(=O)O` [Ampicillin, reference compound]: in data set [10] (setting [12]), the “appearance of water after 6 days” value is “cloudy”; the “fish outcome after 6 days” value is “died and all of fishes died”. For the same molecule, in data set [10] (setting [13]), the “appearance of water after 6 days” value was “cloudy”; the “fish outcome after 6 days” value was “died and all of fishes died”. Moreover, the “inhibition of proliferation of microorganisms” value in [8] (20 ppm Bactrim / 10 ppm Ampicillin, first 36 hours) is listed as “slightly inhibited”. In the case of `O=C([O-])CN(CCN(CC(=O)O)CC(=O)O)CC(=O)[O-].[K+].[K+]` [EDTA dipotassium], the “toxicity / safety to host cells” value in data set [1] is “toxic to host cells”. On to Na tannate Na, for which the “concentration in culture medium” value in data set [8] came out at 30 ppm. As for `O=c1oc2ccccc2c(O)c1C1CC(c2ccc(OCc3ccc(C(F)(F)F)cc3)cc2)Cc2ccccc21` (stereo not shown) [flocoumafen, reference compound], the “time to death of all mice” value in data set [11] was “about 2 days”. Moreover, the “time to death of fish, toxin alone” value in data set [1] (1.25 ppm flocoumafen / 0.3 ppm Bromadiolone / 0.2 ppm Methylamine Avermectin) is 2160 min. Turning to `O=C([O-])CCC(=O)[O-].[Na+].[Na+]` [succinate Na, Na succinate], the “concentration in culture medium” value in data set [8] turned out to be 80 ppm.

The values above are taken from US20260294964A1, “PHARMACEUTICALS CONTAINING CHELATORS WITH STRONG ZN IONS-HOLDING FEATURE FOR THE TREATMENT OF SYMPTOMS AND DISEASES CAUSED BY MICROORGANISMS/DISEASES CAUSED BY TOXINS OR NEUROTOXINS/CANCER/SEVERAL SYNDROMES” (priority 2023, published 2026).
